# Measurements as given in patent US11214803B2, “Modulators of YAP1 expression” (Ionis Pharmaceuticals, Inc., priority 2019, dated 2022).
# Strand notation (5' to 3'): a small letter for the sugar, then the base; units joined by * are phosphorothioate-linked, units joined directly phosphodiester-linked; [ ] holds rarer units or linkages, { } end groups; capitals alone tell only the bases. k = constrained ethyl (cEt); [5mC] = 5-methylcytosine; d = 2'-deoxy (DNA)
# Tested on: Yap1 mRNA
# Assay: Antisense inhibition of human Yap1 in A-431 cells by cEt gapmers, single dose (Example 2, RTS4814)
# Format: cell-based
# Procedure, shortened: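 Each 16-nucleoside gapmer (ten-deoxy gap, three-cEt wings) is tested once at 2,000 nM in A-431 cells by free uptake. Yap1 mRNA after about 48 hours is measured by quantitative RT-PCR and expressed relative to untreated control.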
# [1] = Table 19, A-431 cells, 5,000 cells per well, free uptake, 2,000 nM modified oligonucleotide, approx. 48 hours, RTS4814, normalized to RIBOGREEN, Yap1 mRNA as percent of untreated control
# [2] = Table 25, Yap1 mRNA as percent of untreated control, 3-10-3 cEt gapmers targeting SEQ ID NO.: 1, and 2
# [3] = Table 21, Yap1 mRNA, percent of untreated control, 3-10-3 cEt gapmers targeting SEQ ID NO.: 1 and 2
# [4] = Table 22, Yap1 mRNA as percent of untreated control, 3-10-3 cEt gapmers, single dose
# [5] = Table 32, Yap1 mRNA, percent of untreated control, 3-10-3 cEt gapmers targeting SEQ ID NO.: 1, and 2
# [6] = Table 24, Yap1 mRNA as percent of untreated control, 3-10-3 cEt gapmers targeting SEQ ID NO.: 1, and 2
# [7] = Table 23, Yap1 mRNA as percent of untreated control, 3-10-3 cEt gapmers, single dose
# [8] = Table 20, Yap1 mRNA, percent of untreated control, 3-10-3 cEt gapmers targeting SEQ ID NO.: 1 and 2
# [9] = A-431 cells, 5,000 cells per well, free uptake, 2,000 nM modified oligonucleotide, approx. 48 hours, RTS4814, normalized to RIBOGREEN, Table 4, asterisk (*) = targets amplicon region of primer probe set
# [10] = Table 5, A-431 cells, 5,000 cells per well, free uptake, 2,000 nM modified oligonucleotide, approx. 48 hours, RTS4814, normalized to RIBOGREEN, Yap1 mRNA relative to untreated control cells
# [11] = Yap1 mRNA as percent of untreated control, A-431 cells, 3-10-3 cEt gapmers targeting SEQ ID NO.: 1, and 2, Table 31
# [12] = Table 6, A-431 cells, 5,000 cells per well, free uptake, 2,000 nM modified oligonucleotide, approx. 48 hours, RTS4814, normalized to RIBOGREEN, Yap1 mRNA relative to untreated control cells
# [13] = Table 33, Yap1 mRNA, percent of untreated control, 3-10-3 cEt gapmers targeting SEQ ID NO.: 1, and 2
substance,measurement,setting,value
1074245 (antisense kA*kG*kA*dA*dG*dT*dA*dT*d[5mC]*dT*d[5mC]*dT*dG*kA*k[5mC]*k[5mC]) [Compound 1074245],YAP1 (% UTC),[1],5 % UTC
1075749 (kA*kA*kT*dT*dA*dT*dG*dA*dA*dT*dG*dA*dT*kG*kG*kG; antisense) [Compound 1075749],YAP1 (% UTC),[1],4 % UTC
1075403 (antisense k[5mC]*kT*kT*dA*dA*dT*d[5mC]*dA*dG*dG*dT*dA*d[5mC]*kT*kA*kT) [Compound 1075403],YAP1 (% UTC),[2],18 % UTC
1076551 (antisense kG*kT*kG*dG*dA*dA*dT*dA*dG*d[5mC]*dA*dG*d[5mC]*k[5mC]*kA*kT) [Compound 1076551],YAP1 (% UTC),[3],67 % UTC
1076199 (kT*kA*kT*d[5mC]*dA*dA*dA*dA*dG*dT*d[5mC]*d[5mC]*dA*kT*k[5mC]*k[5mC]; antisense) [Compound 1076199],YAP1 (% UTC),[3],37 % UTC
1074216 (antisense kG*kA*kT*dT*dT*dG*dG*dG*d[5mC]*dT*d[5mC]*d[5mC]*dG*kG*k[5mC]*kG) [Compound 1074216],YAP1 (% UTC),[4],58 % UTC
1075666 (antisense kA*kA*kA*dT*dT*dT*dA*dG*dT*dT*dG*dT*dG*k[5mC]*kA*k[5mC]) [compound 1075666],YAP1 (% UTC),[5],106 % UTC
1076394 (k[5mC]*k[5mC]*kT*dA*dA*dA*dT*dT*dA*dG*dA*d[5mC]*dT*kT*kG*kA; antisense) [Compound 1076394],YAP1 (% UTC),[6],20 % UTC
1075883 (kA*k[5mC]*kT*dA*dA*dA*dA*d[5mC]*d[5mC]*dA*dT*dT*dT*kG*k[5mC]*k[5mC]; antisense) [Compound 1075883],YAP1 (% UTC),[2],20 % UTC
1075433 (antisense kT*kT*kA*dA*d[5mC]*dT*dA*dA*d[5mC]*dT*dA*dA*dA*k[5mC]*kT*kG) [Compound 1075433],YAP1 (% UTC),[7],124 % UTC
1075813 (kA*k[5mC]*kT*dA*dA*dT*dA*dT*dG*d[5mC]*dA*dA*d[5mC]*kT*k[5mC]*kT; antisense) [Compound 1075813],YAP1 (% UTC),[1],4 % UTC
1074502 (kA*kA*k[5mC]*dT*dA*d[5mC]*dA*dA*dT*dA*dA*d[5mC]*d[5mC]*kA*kT*k[5mC]; antisense) [Compound 1074502],YAP1 (% UTC),[8],31 % UTC
1074546 (k[5mC]*kA*k[5mC]*dT*d[5mC]*d[5mC]*d[5mC]*d[5mC]*dT*dA*dG*dG*d[5mC]*kA*k[5mC]*kT; antisense) [compound 1074546],YAP1 (% UTC),[5],33 % UTC
716511 (antisense kG*kA*kT*d[5mC]*dT*dT*d[5mC]*dT*dG*d[5mC]*dA*d[5mC]*dA*kT*kT*kA) [Compound 716511],YAP1 (% UTC),[9],51 % UTC
1075026 (antisense k[5mC]*kT*kT*dA*dA*dA*dA*dG*d[5mC]*d[5mC]*dA*dT*d[5mC]*kT*kA*k[5mC]) [compound 1075026],YAP1 (% UTC),[5],55 % UTC
1075978 (kA*kG*kA*dT*dT*dA*dA*dA*dA*dG*dT*d[5mC]*dG*kG*kG*k[5mC]; antisense) [Compound 1075978],YAP1 (% UTC),[6],11 % UTC
1076518 (antisense kG*kA*kT*dA*dA*dG*d[5mC]*dA*d[5mC]*d[5mC]*dA*d[5mC]*d[5mC]*kA*kT*kA) [Compound 1076518],YAP1 (% UTC),[8],25 % UTC
1075302 (k[5mC]*k[5mC]*kT*dT*dA*dA*dA*dG*d[5mC]*dT*dT*d[5mC]*d[5mC]*kA*k[5mC]*k[5mC]; antisense) [Compound 1075302],YAP1 (% UTC),[8],75 % UTC
716470 (kA*kA*kT*d[5mC]*dG*dA*dG*dA*d[5mC]*dT*dT*dA*dA*kA*kA*kA; antisense) [Compound 716470],YAP1 (% UTC),[10],104 % UTC
1074345 (antisense kT*k[5mC]*kT*dG*dA*dG*d[5mC]*dT*dA*dT*dT*dG*dG*kT*k[5mC]*kG) [Compound 1074345],YAP1 (% UTC),[7],8 % UTC
716347 (kT*kG*k[5mC]*d[5mC]*dT*dT*dT*d[5mC]*d[5mC]*d[5mC]*d[5mC]*dG*d[5mC]*k[5mC]*kT*k[5mC]; antisense) [Compound 716347],YAP1 (% UTC),[10],85 % UTC
716544 (antisense kT*kA*k[5mC]*dT*dT*dA*dA*d[5mC]*dA*d[5mC]*dA*dG*d[5mC]*kA*kA*k[5mC]) [Compound 716544],YAP1 (% UTC),[9],71 % UTC
1075602 (antisense kT*kA*kT*dT*dA*dT*dA*dA*dG*dT*d[5mC]*dT*dA*k[5mC]*kA*kA) [compound 1075602],YAP1 (% UTC),[5],114 % UTC
1075633 (antisense k[5mC]*kT*kA*dT*dA*dT*dT*dG*dG*d[5mC]*dT*d[5mC]*d[5mC]*kT*kA*kG) [compound 1075633],YAP1 (% UTC),[11],82 % UTC
716394 (kG*kT*kT*dG*d[5mC]*dT*dG*d[5mC]*dA*dG*dT*d[5mC]*dG*k[5mC]*kA*kT; antisense) [Compound 716394],YAP1 (% UTC),[9],120 % UTC
1076454 (kT*kA*kA*dA*d[5mC]*dT*dA*dA*dT*d[5mC]*d[5mC]*d[5mC]*dA*kT*kA*kT; antisense) [Compound 1076454],YAP1 (% UTC),[8],35 % UTC
716495 (kG*kT*kT*dA*dT*dG*dA*dA*d[5mC]*d[5mC]*d[5mC]*dT*dT*kG*kA*kA; antisense) [Compound 716495],YAP1 (% UTC),[12],58 % UTC
1074162 (kA*kG*kG*d[5mC]*dG*dA*dG*d[5mC]*dG*dA*dG*dG*dG*k[5mC]*kT*kA; antisense) [compound 1074162],YAP1 (% UTC),[5],101 % UTC
1074611 (DNA kT*kA*kG*d[5mC]*dT*dT*dA*dT*dA*dT*dT*dG*dA*kA*kG*kA) [compound 1074611],YAP1 (% UTC),[13],19 % UTC
1075013 (antisense k[5mC]*kA*kT*dA*dA*dA*d[5mC]*d[5mC]*d[5mC]*dA*d[5mC]*dT*dT*k[5mC]*kG*kA) [Compound 1075013],YAP1 (% UTC),[1],102 % UTC
1075914 (kA*kT*kT*dT*dA*dG*dG*dA*dT*dG*d[5mC]*d[5mC]*dT*kT*kT*kA; antisense) [Compound 1075914],YAP1 (% UTC),[6],14 % UTC
1074634 (antisense kG*k[5mC]*kT*dG*dA*dG*dG*d[5mC]*dT*dT*dT*dT*d[5mC]*kA*kT*kA) [Compound 1074634],YAP1 (% UTC),[6],55 % UTC
1075625 (kA*kA*kT*d[5mC]*dT*dA*dT*dA*dA*d[5mC]*d[5mC]*d[5mC]*dT*kT*kA*kT; antisense) [Compound 1075625],YAP1 (% UTC),[7],49 % UTC
1075987 (kG*kA*kA*dG*dA*dA*dT*dA*dT*d[5mC]*dG*dA*dA*kA*kA*kG; antisense) [compound 1075987],YAP1 (% UTC),[13],13 % UTC
1075591 (kG*kT*kA*dA*dT*dA*dA*dT*d[5mC]*dA*d[5mC]*d[5mC]*dT*kT*kA*k[5mC]; antisense) [Compound 1075591],YAP1 (% UTC),[3],76 % UTC
1075346 (antisense kG*kT*kA*dA*dG*dT*dA*dA*dA*dA*d[5mC]*dT*dG*k[5mC]*kT*kG) [compound 1075346],YAP1 (% UTC),[5],16 % UTC
1074918 (antisense kT*k[5mC]*kA*dA*dG*dT*dT*dA*d[5mC]*dA*dT*d[5mC]*d[5mC]*k[5mC]*kG*kA) [Compound 1074918],YAP1 (% UTC),[8],60 % UTC
1075527 (kA*kT*kT*dT*dA*dA*dT*dT*dA*dA*dG*dG*dG*k[5mC]*k[5mC]*k[5mC]; antisense) [Compound 1075527],YAP1 (% UTC),[3],82 % UTC
716491 (k[5mC]*kT*kG*dG*dT*dG*d[5mC]*d[5mC]*dA*d[5mC]*dT*dT*dT*kA*kA*kT; antisense) [Compound 716491],YAP1 (% UTC),[10],54 % UTC
1076433 (kA*kT*kT*dA*dA*d[5mC]*dT*dT*dT*d[5mC]*dG*d[5mC]*dT*kA*kA*kA; antisense) [compound 1076433],YAP1 (% UTC),[11],69 % UTC
1074696 (antisense kG*kT*k[5mC]*d[5mC]*d[5mC]*d[5mC]*d[5mC]*dT*dA*dA*dA*dT*d[5mC]*kT*kT*k[5mC]) [Compound 1074696],YAP1 (% UTC),[4],38 % UTC
716503 (kT*kT*kA*dT*dT*dA*dT*dG*dA*dG*dT*dG*dA*kT*k[5mC]*kA; antisense) [Compound 716503],YAP1 (% UTC),[10],33 % UTC
1075283 (antisense k[5mC]*kG*kA*dA*dT*dA*dT*dA*dG*dA*dA*dA*dA*kA*kT*kG) [compound 1075283],YAP1 (% UTC),[13],90 % UTC
716474 (kT*kA*kA*dA*dT*dG*dA*dA*dG*dG*dT*dA*dA*kA*k[5mC]*k[5mC]; antisense) [Compound 716474],YAP1 (% UTC),[12],120 % UTC
1074889 (antisense kA*kG*kT*dT*dT*dA*dG*d[5mC]*d[5mC]*dT*dG*dA*dA*kG*k[5mC]*kA) [Compound 1074889],YAP1 (% UTC),[7],42 % UTC
716492 (kA*kA*kA*d[5mC]*dA*d[5mC]*dA*dG*dA*dG*dG*dT*dG*k[5mC]*kT*kA; antisense) [Compound 716492],YAP1 (% UTC),[12],72 % UTC
